Data: patent US20250177398A1, “CARBONIC ANHYDRASE ENZYMES FOR REGULATING MAST CELL HEMATOPOIESIS AND TYPE 2 INFLAMMATION” (RUTGERS, THE STATE UNIVERSITY OF NEW JERSEY, priority 2015, published 2025)

Tests used:
[1] = test system: Aspergillus fumigatus-induced allergic airway inflammation; assay: Aspergillus fumigatus extract-induced allergic asthma; type: in vivo, mouse; conditions: mice challenged intranasally with A. fumigatus extract for 3 weeks, MZ (FIG. 5)
Experimental: Aspergillus-induced allergic asthma. Mice were challenged with Aspergillus fumigatus allergic extract as previously described (Mathias, C. B., et al., J Immunol 182, 2416-2424 (2009)). Briefly, mice were challenged (intranasally) 3 times a week for 3 weeks with 50 μl of aqueous Aspergillus fumigatus Allergenic Extract (Greer laboratories: item # M3). After 3 weeks mice were sacrificed and BAL and lungs were processed as previously described (Espinosa, V., et al., PLOS Pathog 10, e1003940 (2014)).

[2] = test system: IL-3C-induced intestinal mast cell responses and peripheral basophilia; assay: IL-3C treatment of Rag1-deficient mice; type: in vivo, mouse; conditions: MZ 2 mg every day (FIG. 3G)
Experimental: Methods for maintenance, recovery, infection and isolation of Trichinella larvae were performed as previously described (Urban, et al., 2000. J Immunol 164:2046-2052). Mice were infected with 500 Trichinella muscle larvae by oral gavage and were treated with vehicle (1:5 DMSO to PBS) or 2-3 mg of MZ i.p. daily; mice were sacrificed between 10-11 days post-infection. At necropsy, single cell suspensions of mLNs and spleens were prepared as previously described (Giacomin, et al., 2012. Journal of immunology (Baltimore, Md.: 1950) 189:4371-4378) for basophil and mast cell analysis. Blood was collected and serum was isolated for analysis of Mcpt1 and IgE. Sections (1 cm) of small intestine (jejunum) were collected for real-time PCR and histological analysis. Remaining sections of small intestine were slit lengthwise, rinsed in PBS, and placed in HBSS for 4 hours at 37° C. and adult worms were quantified by microscopic analysis as previously described (Urban, et al., 2000. J Immunol 164:2046-2052). Rag1^−/− mice were injected (i.p.) with a combination of recombinant IL-3 (1 μg) and α-IL-3 antibody (0.5 μg) (BioLegend: clone MP2-8F8) in 200 μl PBS every 3 days for 7-10 days. IL-3C-treated mice were treated with MZ (2 mg) or vehicle (DMSO) every day.

[3] = test system: BM cells (macrophage development); assay: Murine macrophage cultures: BM cells with L-cell supernatant; type: cell-based, mouse; conditions: 30% L-cell supernatant, 30 μg/mL MZ, day 5 (FIG. 1G)
Experimental: BM cells were isolated from the femur of WT mice and cultured in the presence of 30% L-cell supernatant and vehicle (1:10 DMSO to RPMI complete media) or 30 μg/mL MZ. Fresh macrophage medium with either vehicle or MZ was added daily and macrophage cell populations were evaluated on day 5 post-culture

[4] = test system: bone marrow-resident progenitor cells (mast cell and basophil development); assay: Murine mast cell and basophil developmental assay: BM progenitor cells cultured with IL-3; type: cell-based, mouse; conditions: BM cells + IL-3 10 ng/mL, 30 μg/mL MZ
Experimental: FIGS. 6A-6B. Bone marrow-resident progenitor cells were cultured in media, media treated with IL-3 (10 ng/ml), media treated with IL-3 and compound 8 (25 ng/ml) (FIG. 6A) or, media treated with IL-3 and compound 16 (25, 50, or 75 ng/ml) (FIG. 6B). On day 7 post-culture mast cells were identified by flow cytometric analysis. Results are representative of 2 independent experiments with at least 4 technical replicated per experiment. Statistical analysis was performed using a Student's t-test. (*,p<0.05) (***,p<0.001).
BM cells were isolated from the femur of WT mice and cultured in the presence of 10 ng/mL of IL-3 and vehicle (1:10 DMSO to RPMI complete media) or 30 μg/mL MZ. Fresh IL-3 with either vehicle or MZ were added daily, and mast cell and basophil populations were evaluated on day 7 post-culture.
Further, it is illustrated that genetically editing Car1 in stem cells via CRISPR/Cas9 technology decreases their capacity to develop into mature mast cells. […] However, whether inhibitors that selectively target Car1 can be used to inhibit mast cell development was unknown. […] Therefore, it was sought to be determined whether compound 8 and/or compound 16 could inhibit mast cell development from progenitor cell populations. To test this, the mast cell developmental assay was employed and bone marrow-resident progenitor cells were treated with IL-3 to promote mast cell development.

Aspergillus fumigatus = Aspergillus fumigatus (FLARE conidia) lung infection; type: in vivo, mouse; conditions: A. fumigatus-infected mice, 2-3 mg MZ i.p. daily, 72 hours post-infection (FIGS. 3H-3J)
Experimental: A. fumigatus strain Af293 was grown on glucose minimal media (GMM) agar plates for 3 days or Sabouraud dextrose agar (SDA) for 7-10 days at 37° C., respectively. Conidia were harvested by adding 0.01% Tween 80 to plates and gently scraping conidia from the plates using a cell scraper. Conidia were then filtered through sterile Miracloth, were washed and resuspended in phosphate buffered saline (PBS), and counted on a hemocytometer. FLARE conidia were prepared as previously described (Espinosa, et al., 2014. PLOS Pathog 10:e1003940). Mice were challenged with 5×10^7 A. fumigatus conidia intratracheally (i.t.) as described previously (Espinosa, et al., 2014. PLOS Pathog 10:e1003940). Mice were treated with vehicle (1:5 DMSO to PBS) or 2-3 mg of MZ i.p. daily and sacrificed 72 hours post-infection. Bronchoalveolar lavage (BAL) fluid was collected by washing the lungs with 2 mL of PBS containing 0.05M EDTA. After collection of the BAL fluid, lung samples were minced in RPMI containing 100 units/mL of collagenase (Gibco) and incubated at 37° C. for 60 minutes, disrupted and filtered. Subsequently, red blood cells were lysed using a Tris ammonium chloride solution. Analysis of neutrophils was conducted using a panel of cell surface markers: CD45, CD11b, and Ly6G as previously described (Espinosa, et al., 2014. PLOS Pathog 10:e1003940). […]

`CC(=O)/N=c1/sc(S(N)(=O)=O)nn1C` [MZ, methazolamide] was tested, and the “eosinophilic airway inflammation (eosinophils in BAL and lung)” value [1] was “significantly reduced”, the “pulmonary mast cell responses” value [1] was “significantly reduced” and the IL-3C-induced basophilia [2] was “no effect”. The “intestinal mast cell responses” value [2] was “significantly reduced”, the macrophage development [3] was “no effect” and the basophil numbers ([4]; day 7) was “decreased”. The percentages of basophils ([4]; day 7 (FIG. 1F)) was “significantly increased”, the “mast cell populations compared to controls” value ([4]; day 7 post-culture (FIG. 1E)) was “significantly reduced” and the fungal clearance (Aspergillus fumigatus) was “increased”. The neutrophil responses (Aspergillus fumigatus) was “increased”.
